Legend:
Type in all cases: cell-based, Human
[1] = system: SaOS-2 cells; experiment: Number of SaOS-2 cells per well (FIG. 3); conditions: for effect on number of SaOS-2 cells per well: polyP 50 μM where present
Procedure: Only at a very high concentration, LaCl3 caused a strong drop of SaOS-2 cell number.
(§1) Human osteogenic sarcoma SaOS-2 cells are cultured in McCoy's medium (Biochrom, Berlin; Germany) containing 5 mM Na-phosphate and 1 mM CaCl2, supplemented with 15% heat inactivated fetal calf serum (FCS), Na-pyruvate (1 mM), Ca(NO3)2 (0.5 mM), penicillin (100 U/ml), and streptomycin (100 μg/ml), in 6-well plates (surface area 9.46 cm^2; Orange Scientifique, Braine-l'Alleud; Belgium) in a humidified incubator at 37° C. and 5% CO2. Routinely, 2×10^4 cells are added per well (total volume 3 ml).

[2] = system: SaOS-2 cells; experiment: HA mineralization with LaCl3 / polyP, Alizarin Red S OD 570 nm (FIG. 5, 6)
Procedure: The cells were grown for 4 days in the absence of the activation cocktail (AC) and then for further 7 days (i) in the absence or (ii) in the presence of the activation cocktail with increasing concentrations of LaCl3 without (A) or with (B) 50 μM polyP (polyP•La complex). At the end of the incubation period, HA mineralization was determined by incubation of the cultures with Alizarin Red S in the spectrophotometric assay. […] The OD values at 570 nm measured in the spectrophotometric assay in the absence of the activation cocktail had been subtracted from the OD values at 570 nm measured in the presence of the activation cocktail, and the HA formation in the absence of LaCl3 and polyP (FIG. 5 A) was set to 100%.
The data shown in FIG. 5 had been normalized by the number of cells which had been determined in parallel assays. […] The HA formation in the absence of LaCl3 and polyP (FIG. 6 A) was set to 100%.
Similar results were obtained if the values were normalized by cell number (FIG. 6).

[3] = system: SaOS-2 cells; experiment: HA mineralization, Alizarin Red S staining and spectrophotometric assay (FIG. 4); conditions: 5 μM, Me = Gd
Procedure: In this assay Me was Gd. The cells were incubated with 5 μM of each of the compounds. FIG. 4 A: The cells were grown for 7 d in the (a) absence or (b) presence of activation cocktail (AC=50 μM ascorbic acid, 10 nM dexamethasone and 1 mM β-glycerophosphate). In separate experiments the cultures were incubated with the activation cocktail and additionally with (c) MeCl3, (d) polyP, or (e) polyP•Me. After incubation, the cell assays were stained with Alizarin Red S to assess the degree of […]. The diameter of the wells was 15 mm. FIG. 4 B: To quantitatively determine the HA mineralization in SaOS-2 cells, the cultures were assayed at the end of the incubation with Alizarin Red S (AR) in the spectrophotometric assay. […]
The intensity of the Alizarin Red colorimetric reaction at the used concentration range is proportional to the extent of mineralization (HA formation), as determined by using a calibration curve. The values measured (given in nmoles of Alizarin Red S bound) were normalized to the total amount of DNA (given in μg) which is proportional to cell number (the amount of DNA per cell is assumed to remain constant during the experiment). […]
The influence of trivalent cations on the extent of mineralization of SaOS-2 cells was determined in vitro using McCoy's medium/10% FCS and applying Alizarin Red S as a dye to monitor HA formation. […]

[4] = system: BMP2; experiment: qRT-PCR BMP2 gene expression; conditions: 5 μM
[5] = system: SaOS-2 cells; experiment: SEM analysis of HA nodules; conditions: 5 μM, activated cultures, 5 days
Procedure: In this assay Me was Gd. 5 μM of each compound were added to the cells, and the cells were analysed by SEM. The cell cultures were incubated for 5 days either (A) in the absence or (B) in the presence of the activation cocktail. (C) and (F) show incubation of the activated cells with MeCl3; (D) and (G) show incubation of the activated cells with polyP, and (E) and (H) show incubation of the activated cells with polyP•Me. Some nodules (no) and cell layers (c) are marked.
To assure that the increased Alizarin Red S staining is due to a higher HA (Ca-phosphate) deposition SEM analyses were performed. In the absence of the activation cocktail no nodules could be identified on the cells (FIG. 7A). In contrast, if the cells were incubated with the cocktail for 5 days, distinct HA nodules could be identified (FIG. 7B). In the presence of the activation cocktail the cultures were incubated with MeCl3 (FIG. 7C), polyP (FIG. 7D), or both components together, as polyP•Me (FIG. 7E). It is apparent that the density of the nodules in activated cultures incubated with MeCl3 or with polyP alone was lower, compared to polyP•Me. At higher magnification it could be observed that the nodules consisted of irregularly arranged prism-like nanorods (FIGS. 7F to H). […]

[6] = system: SaOS-2 cells; experiment: MTT colorimetric proliferation/viability assay; conditions: tested concentration range of 0.3 to 30 μM; Me = Gd
Procedure: In this assay Me was Gd. The recordings of developed formazan dye in the control (filled bar) were set to 100%. The results are expressed as means (n=10 experiments each)±SEM.
The effects of polyP•Me as well as of the single components polyP and MeCl3 on proliferation/viability of SaOS-2 cells were determined by applying the MMT colorimetric assay (MMT=3-(4,5-dimethylthiazol-2-yl)-2,5-diphenyltetrazolium bromide).
as §1
SaOS-2 cells are seeded at a density of 2×10^4 cells per 3-ml well in a 24-multi-well plate (Orange Scientifique) and cultured for 3 days in McCoy's medium/15% FCS. Increasing concentrations of MeCl3, polyP or polyP•Me are added to the cultures. After incubation, cell proliferation is determined applying the colorimetric method based on the tetrazolium salt […].

[Cl][Al]([Cl])[Cl] [AlCl3] was tested, and the “effect on number of SaOS-2 cells per well” value ([1]; 0.1 mM AlCl3 and higher) was “strong reduction”.
With [Cl][La]([Cl])[Cl] [LaCl3] the HA formation ([2]; 0.05 mM LaCl3, absence of polyP, activation cocktail 7 days) was “marked increase”, the “stimulatory effect on HA formation” value ([2]; LaCl3 0.5 mM and higher, absence of polyP) was “not observed any more” and the “effect on number of SaOS-2 cells per well” value ([1]; 0.05 mM to 1 mM LaCl3) was “did not significantly affect”. For the same molecule, the “effect on SaOS-2 cell number” value ([1]; very high concentration of LaCl3) was “strong drop”.
[Cl][Gd]([Cl])[Cl] [MeCl3, GdCl3] was tested, and the “Alizarin Red S bound normalized to total DNA (HA mineralization)” value ([3]; 7 days after the addition of the activation cocktail) was 0.61 ± 0.08 nmol/µg, the “Alizarin Red S staining intensity / HA formation” value ([3]; in the presence of the activation cocktail, 7 d) was “intensified the staining intensity” and the “BMP2 expression level versus day 5” value ([4]; 7 days) was “remained unchanged”. The “increase in steady-state expression of BMP2” value ([4]; day 5, normalized to GAPDH) was 1.4 fold, the “density of HA nodules compared to polyP•Me” value [5] was “lower” and the “viability/proliferation of SaOS-2 cells (development of the dye formazan)” value [6] was “did not change”.

— patent US20170035806A1, “COMPOSITION FOR PROPHYLAXIS AND TREATMENT OF BONE DISORDERS” (Chemische Fabrik Budenheim KG, priority 2014, published 2017)
